For data set [1], the system named is Voltage-gated calcium channel. The data set can be described thus: Inhibition of voltage gated calcium channel in human SH-SY5Y cells assessed as blockade of K+-evoked calcium uptake at 1 uM pretreated for 10 mins followed by 70 mM K+ addition by Fluo-4AM dye based fluorescence assay relative to control. Format: cell-based.
Data set [2] has as its system SH-SY5Y. Briefly: Neuroprotective activity against cocktail of rotenone plus oligomycin A-induced oxidative stress in human SH-SY5Y cells assessed as increase in cell viability at 10 nM preincubated for 24 hrs followed by […] measured after 24 hrs by MTT assay relative to control. Format: functional. (In general: Tetrazolium assays rely on reduction of a dye to a coloured formazan, in cell work by metabolically active cells.)

Data set [3] has as its system SH-SY5Y. The data set can be described thus: Neuroprotective activity against okadaic acid-induced oxidative stress in human SH-SY5Y cells assessed as increase in cell viability at 0.1 uM preincubated for 24 hrs followed by OA addition measured after 20 hrs by MTT assay relative to control. Format: functional.
The subject of data set [4] is SH-SY5Y. The data set can be described thus: Cytotoxicity against human SH-SY5Y cells assessed as decrease in cell viability up to 30 uM after 48 hrs by MTT assay. Format: cell-based.
Data set [5] concerns SH-SY5Y. The data set can be described thus: Reversal of okadaic acid-mediated PP2A catalytic subunit C Ser/Thr phosphatase activity inactivation in human SH-SY5Y cells assessed as recovery of PP2A activity at 0.1 uM preincubated for 24 hrs followed by cotreatment with PPA2 inhibitor okadaic acid for 18 hrs measured over 30 mins by pNPP based spectrophotometric analysis relative to control. Format: cell-based. Also noted: scale not given: the % may be the effect or the level left.

For data set [6], the target named is Voltage-dependent N-type calcium channel subunit alpha (Bos taurus) (UniProt G3X7Z2). Briefly: Inhibition of N-type voltage dependent calcium channel in bovine Chromaffin cells assessed as reduction in K+-induced calcium current at 1 uM after 3 mins by whole cell patch clamp electrophysiology assay. In kind it is cell-based.
Voltage-dependent N-type calcium channel subunit alpha (Bos taurus), sequence (G3X7Z2 as listed by the source): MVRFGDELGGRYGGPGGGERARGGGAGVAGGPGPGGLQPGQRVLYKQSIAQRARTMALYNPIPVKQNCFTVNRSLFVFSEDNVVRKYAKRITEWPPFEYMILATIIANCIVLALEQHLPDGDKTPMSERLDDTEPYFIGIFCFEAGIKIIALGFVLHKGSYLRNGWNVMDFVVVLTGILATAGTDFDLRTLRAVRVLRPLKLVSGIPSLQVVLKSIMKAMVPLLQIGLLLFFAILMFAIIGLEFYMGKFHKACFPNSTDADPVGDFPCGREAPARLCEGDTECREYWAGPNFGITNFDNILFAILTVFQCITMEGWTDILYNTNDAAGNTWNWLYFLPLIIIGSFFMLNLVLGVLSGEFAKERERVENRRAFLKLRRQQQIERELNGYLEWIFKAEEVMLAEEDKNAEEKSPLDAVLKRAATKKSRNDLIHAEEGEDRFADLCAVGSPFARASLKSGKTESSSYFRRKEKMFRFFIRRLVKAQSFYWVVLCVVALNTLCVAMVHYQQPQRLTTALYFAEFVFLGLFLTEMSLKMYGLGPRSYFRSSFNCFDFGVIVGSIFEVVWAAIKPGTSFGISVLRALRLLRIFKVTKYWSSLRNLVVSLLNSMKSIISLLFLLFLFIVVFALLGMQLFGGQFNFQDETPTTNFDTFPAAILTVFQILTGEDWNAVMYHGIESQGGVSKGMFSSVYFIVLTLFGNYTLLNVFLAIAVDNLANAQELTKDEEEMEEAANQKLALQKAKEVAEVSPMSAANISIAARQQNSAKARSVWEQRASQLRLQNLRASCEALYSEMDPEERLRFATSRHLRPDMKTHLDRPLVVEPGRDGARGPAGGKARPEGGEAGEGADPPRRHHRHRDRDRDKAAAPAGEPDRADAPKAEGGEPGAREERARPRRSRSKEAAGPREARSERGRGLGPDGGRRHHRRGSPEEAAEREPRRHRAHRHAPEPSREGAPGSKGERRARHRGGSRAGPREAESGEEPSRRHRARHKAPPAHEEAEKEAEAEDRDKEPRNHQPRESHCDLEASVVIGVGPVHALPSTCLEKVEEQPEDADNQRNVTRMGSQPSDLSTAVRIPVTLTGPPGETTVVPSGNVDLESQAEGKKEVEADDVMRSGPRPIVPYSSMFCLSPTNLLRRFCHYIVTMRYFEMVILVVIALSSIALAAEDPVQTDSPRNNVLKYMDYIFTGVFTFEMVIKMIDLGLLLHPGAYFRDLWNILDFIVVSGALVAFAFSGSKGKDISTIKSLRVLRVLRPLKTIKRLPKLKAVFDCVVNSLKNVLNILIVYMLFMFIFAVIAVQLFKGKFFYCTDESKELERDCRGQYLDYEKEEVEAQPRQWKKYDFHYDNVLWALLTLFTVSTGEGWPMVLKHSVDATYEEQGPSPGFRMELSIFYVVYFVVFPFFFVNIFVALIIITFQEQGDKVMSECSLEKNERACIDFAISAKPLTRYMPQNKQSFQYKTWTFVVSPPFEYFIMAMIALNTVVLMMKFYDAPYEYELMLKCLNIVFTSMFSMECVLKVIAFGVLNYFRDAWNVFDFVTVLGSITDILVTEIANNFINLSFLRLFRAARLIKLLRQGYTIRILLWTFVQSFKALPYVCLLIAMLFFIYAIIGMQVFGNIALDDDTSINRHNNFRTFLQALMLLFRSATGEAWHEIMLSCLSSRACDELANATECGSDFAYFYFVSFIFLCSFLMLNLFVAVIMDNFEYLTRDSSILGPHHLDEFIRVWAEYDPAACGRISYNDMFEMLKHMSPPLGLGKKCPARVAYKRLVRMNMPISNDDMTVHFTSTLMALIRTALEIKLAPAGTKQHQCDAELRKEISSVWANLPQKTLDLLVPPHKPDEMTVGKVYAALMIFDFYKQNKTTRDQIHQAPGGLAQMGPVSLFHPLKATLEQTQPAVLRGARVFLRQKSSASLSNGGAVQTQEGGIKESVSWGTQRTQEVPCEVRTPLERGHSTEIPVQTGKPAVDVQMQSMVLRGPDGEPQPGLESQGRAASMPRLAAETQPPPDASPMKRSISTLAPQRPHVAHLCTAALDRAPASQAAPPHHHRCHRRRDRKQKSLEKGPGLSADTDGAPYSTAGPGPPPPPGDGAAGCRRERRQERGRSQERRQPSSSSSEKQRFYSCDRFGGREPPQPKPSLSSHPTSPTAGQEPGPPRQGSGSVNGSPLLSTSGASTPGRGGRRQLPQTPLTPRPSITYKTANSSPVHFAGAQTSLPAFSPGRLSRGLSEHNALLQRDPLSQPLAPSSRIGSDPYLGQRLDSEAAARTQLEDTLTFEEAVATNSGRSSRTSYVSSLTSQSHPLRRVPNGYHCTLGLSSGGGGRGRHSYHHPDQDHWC
Data set [7] has as its system SH-SY5Y. The data set can be described thus: Reversal of okadaic acid-mediated PP2A inactivation in human SH-SY5Y cells assessed as decrease in Tau phosphorylation at Ser202/Thr205 residues at 0.1 uM after 24 hrs by Western blot method. Format: cell-based. A general note: A western blot detects proteins with antibodies after separation by electrophoresis.
The species named for another data set is Bos taurus. Briefly: Inhibition of P/Q-type voltage dependent calcium channel in bovine Chromaffin cells assessed as reduction in K+-induced calcium current at 1 uM after 3 mins by whole cell patch clamp electrophysiology assay. In kind it is cell-based.
Data set [8] deals with Voltage-gated calcium channel. Briefly: Inhibition of voltage gated calcium channel in human SH-SY5Y cells assessed as blockade of K+-evoked calcium uptake at 3 uM pretreated for 10 mins followed by 70 mM K+ addition by Fluo-4AM dye based fluorescence assay relative to control. In kind it is cell-based.

Here are results for 23 molecules from ChEMBL document CHEMBL4270601, “Design and synthesis of multipotent 3-aminomethylindoles and 7-azaindoles with enhanced protein phosphatase 2A-activating profile and neuroprotection” (Eur J Med Chem, 2018).

The source made the active and inactive calls. The calls are words filed in the database; no cut-off is given here.

As to `C#CCn1cc(CN(C)C)c2cc(Cl)ccc21`, the “inhibition (INH)” value in data set [1] is on record as 18%. Moreover, the Activity was 26% with SH-SY5Y [2], 43% in the data set with SH-SY5Y [3], “Non-Toxic” with SH-SY5Y [4] and 23% with SH-SY5Y [5].
`CN(C)Cc1cn(Cc2ccccc2)c2ccc(Cl)cc12`: the “inhibition (INH)” value in data set [1] came out at 40%. Moreover, the Activity was 32% in the data set with SH-SY5Y [2], 88% in the data set with SH-SY5Y [3], “Non-Toxic” in the data set with SH-SY5Y [4] and 78% in the data set on SH-SY5Y [5]. Also, the inhibition entry (in data set [6]; in the data set listed under Bos taurus) was “Active” in each case. The outcome in the data set with SH-SY5Y [7] was Active.
In the case of `CCCCn1cc(CN(C)C)c2cc(Br)cnc21`, in data set [1], the “inhibition (INH)” value stood at 10%. Besides, the Activity with SH-SY5Y [2] was 18%; with SH-SY5Y [3], 57%; in the data set with SH-SY5Y [4], “Non-Toxic”; in the data set on SH-SY5Y [5] it was 34%.
In the same order, the values of `C#CCn1cc(CN2CCCCC2)c2cc(Cl)ccc21` are 32%, 16%, 55%, “Non-Toxic” and 44%.
With `CC12CC3CC(C)(C1)CC(N)(C3)C2` [MEMANTINE], the Activity amounted to 63% in the data set with SH-SY5Y [3] and 28% in the data set on SH-SY5Y [5].
`CCCCn1cc(CN2CCCCC2)c2cc(Cl)ccc21`: in data set [1], the “inhibition (INH)” value was determined as 24%. The Activity in the data set with SH-SY5Y [2] is 27%; in the data set on SH-SY5Y [3], 98%; in the data set on SH-SY5Y [4], “Non-Toxic”; with SH-SY5Y [5], 38%.
Regarding `Brc1cnc2c(c1)c(CN1CCCCC1)cn2Cc1ccccc1`, the “inhibition (INH)” value in [1] stood at 15%. Also, the Activity is 25% in the data set on SH-SY5Y [2], 60% with SH-SY5Y [3], “Non-Toxic” in the data set with SH-SY5Y [4] and 31% in the data set with SH-SY5Y [5].
As to `C#CCn1cc(CN2CCCCC2)c2ccccc21`, the “inhibition (INH)” value in data set [1] is listed as 35%. The Activity in the data set on SH-SY5Y [2] was 41%; with SH-SY5Y [3] it was 58%; with SH-SY5Y [4] it was “Non-Toxic”; in the data set on SH-SY5Y [5], 17%.
The corresponding values for `CCCCn1cc(CN(C)C)c2cc(Cl)ccc21` are 23%, 38%, 93%, “Non-Toxic” and 39%.
For the molecule `COc1ccc2[nH]cc(CCNC(C)=O)c2c1` [MELATONIN], in the data set on SH-SY5Y [2], the Activity is on record as 36%.
`COc1cnc2c(c1)c(CN1CCCCC1)cn2Cc1ccccc1`: the “inhibition (INH)” value in data set [1] came to 19%. The Activity was 40% in the data set on SH-SY5Y [2], 62% in the data set on SH-SY5Y [3], “Non-Toxic” with SH-SY5Y [4] and 47% in the data set on SH-SY5Y [5].
As for `COC(=O)C1=C(C)NC(C)=C(C(=O)OC)C1c1ccccc1[N+](=O)[O-]` [NIFEDIPINE], in [8], the “inhibition (INH)” value was determined as 40%.
With `C#CCn1cc(CN2CCCCC2)c2cc(Br)cnc21`, the “inhibition (INH)” value in [1] worked out at 8%. Also, the Activity in the data set on SH-SY5Y [2] is 13%; with SH-SY5Y [3] it was 68%; with SH-SY5Y [4], “Non-Toxic”; in the data set on SH-SY5Y [5], 25%.
The corresponding values for `C#CCn1cc(CN(C)C)c2cc(Br)cnc21` are 11%, 17%, 63%, “Non-Toxic” and 17%.
In the same order, the values of `CCCCn1cc(CN2CCCCC2)c2ccccc21` are 13%, 25%, 55%, “Non-Toxic” and 30%.
The corresponding values for `C#CCn1cc(CN(C)C)c2ccccc21` are 3%, 32%, 75%, “Non-Toxic” and 59%.
Take `c1ccc(Cn2cc(CN3CCCCC3)c3ccccc32)cc1`: in [1], the “inhibition (INH)” value stood at 11%. The Activity in the data set on SH-SY5Y [2] is 28%; with SH-SY5Y [3] it was 65%; in the data set on SH-SY5Y [4], “Non-Toxic”; with SH-SY5Y [5] it was 37%.
The corresponding values for `CCCCn1cc(CN(C)C)c2ccccc21` are 7%, 20%, 50%, “Non-Toxic” and 12%.
For `Clc1ccc2c(c1)c(CN1CCCCC1)cn2Cc1ccccc1`, the “inhibition (INH)” value in [1] was determined as 37%. Also, the Activity with SH-SY5Y [2] is 24%; in the data set with SH-SY5Y [3] it was 62%; in the data set on SH-SY5Y [4], “Non-Toxic”; with SH-SY5Y [5], 27%.
Consider `CCCCn1cc(CN2CCCCC2)c2cc(Br)cnc21`, for which the “inhibition (INH)” value in data set [1] is on record as 9%. Also, the Activity in the data set with SH-SY5Y [2] is 39%; in the data set with SH-SY5Y [3], 98%; in the data set on SH-SY5Y [4], “Non-Toxic”; in the data set with SH-SY5Y [5], 22%.
`COc1cnc2c(c1)c(CN(C)C)cn2Cc1ccccc1`: in [1], the “inhibition (INH)” value is 10%. Also, the Activity with SH-SY5Y [2] was 29%; in the data set on SH-SY5Y [3] it was 51%; in the data set with SH-SY5Y [4], “Non-Toxic”; with SH-SY5Y [5], 33%.
With `CN(C)Cc1cn(Cc2ccccc2)c2ncc(Br)cc12`, in data set [1], the “inhibition (INH)” value is 46%. For the same molecule, the Activity is 32% in the data set on SH-SY5Y [2], 84% with SH-SY5Y [3], “Non-Toxic” in the data set with SH-SY5Y [4] and 21% in the data set with SH-SY5Y [5]. The inhibition entry (in data set [6]; in the data set listed under Bos taurus) was “Active” in each case.
As to `CN(C)Cc1cn(Cc2ccccc2)c2ccccc12`, in data set [1], the “inhibition (INH)” value came out at 22%. Also, the Activity with SH-SY5Y [2] is 34%; in the data set on SH-SY5Y [3], 67%; in the data set on SH-SY5Y [4], “Non-Toxic”; with SH-SY5Y [5], 45%.
